Laboratory results reported in ChEMBL document CHEMBL5241079, “Inhibitors of BCL2A1/Bfl-1 protein: Potential stock in cancer therapy” (Eur J Med Chem, 2021).

Experiments:
[1] = target: T1, Bcl-2-like protein 11/Bcl-2-related protein A1 (Homo sapiens, UniProt O43521+Q16548); experiment: Inhibition of Bfl-1/Bim (unknown origin) incubated for 30 mins by TR-FRET assay; assay type: protein-complex assay
[2] = target: T1, Bcl-2-like protein 11/Bcl-2-related protein A1; experiment: Inhibition of Bfl-1/Bim (unknown origin) by fluorescence polarization assay; assay type: protein-complex assay
[3] = target: T1, Bcl-2-like protein 11/Bcl-2-related protein A1; experiment: Inhibition of Bfl-1/Bim (unknown origin) assessed as inhibition constant by fluorescence polarization assay; assay type: protein-complex assay
[4] = Lipophilicity, logP of compound; assay type: physicochemical; details: octanol/water
[5] = target: T2, Apoptosis regulator Bcl-2 (Homo sapiens, UniProt P10415); experiment: Inhibition of Bcl-2 (unknown origin) by fluorescence polarization assay
T2 sequence (P10415 whole entry): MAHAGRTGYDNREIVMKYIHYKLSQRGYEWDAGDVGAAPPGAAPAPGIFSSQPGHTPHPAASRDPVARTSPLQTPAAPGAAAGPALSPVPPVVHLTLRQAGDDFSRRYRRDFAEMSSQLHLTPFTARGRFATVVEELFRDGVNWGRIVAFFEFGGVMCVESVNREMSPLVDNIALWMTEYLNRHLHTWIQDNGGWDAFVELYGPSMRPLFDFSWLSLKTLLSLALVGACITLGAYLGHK

[6] = target: T2, Apoptosis regulator Bcl-2; experiment: Displacement of fluorescein tagged BID BH3 peptide from GST-tagged recombinant Bcl-2 (unknown origin) by fluorescence polarization-based competitive binding assay
[7] = target: Induced myeloid leukemia cell differentiation protein Mcl-1 (Homo sapiens) (UniProt Q07820); experiment: Displacement of fluorescein tagged BID BH3 peptide from GST-tagged recombinant Mcl-1 (unknown origin) by fluorescence polarization-based competitive binding assay
Induced myeloid leukemia cell differentiation protein Mcl-1 (Homo sapiens), sequence (Q07820 whole entry): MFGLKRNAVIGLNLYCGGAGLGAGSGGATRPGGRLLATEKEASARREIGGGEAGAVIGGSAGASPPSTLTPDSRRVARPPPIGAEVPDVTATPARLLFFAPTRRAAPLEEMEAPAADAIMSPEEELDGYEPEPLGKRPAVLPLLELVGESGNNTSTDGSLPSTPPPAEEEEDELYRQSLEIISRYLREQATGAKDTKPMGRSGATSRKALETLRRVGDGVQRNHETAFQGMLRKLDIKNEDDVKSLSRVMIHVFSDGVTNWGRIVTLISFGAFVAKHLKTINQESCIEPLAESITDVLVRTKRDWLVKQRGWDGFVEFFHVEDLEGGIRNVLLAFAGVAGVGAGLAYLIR

[8] = target: T3, Bcl-2-related protein A1 (Homo sapiens, UniProt Q16548); experiment: Inhibition of Bfl-1 (unknown origin) by fluorescence polarization assay
T3 sequence (Q16548 whole entry): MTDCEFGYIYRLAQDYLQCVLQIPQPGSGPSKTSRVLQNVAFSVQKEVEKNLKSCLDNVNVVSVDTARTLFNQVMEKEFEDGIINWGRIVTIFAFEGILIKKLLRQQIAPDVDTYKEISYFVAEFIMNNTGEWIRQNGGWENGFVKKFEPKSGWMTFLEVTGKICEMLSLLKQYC

[9] = target: T3, Bcl-2-related protein A1; experiment: Displacement of fluorescent-labeled BID-BH3 peptide from His-tagged BFL-1 (unknown origin)

T1 sequence (O43521 whole entry, one chain of several): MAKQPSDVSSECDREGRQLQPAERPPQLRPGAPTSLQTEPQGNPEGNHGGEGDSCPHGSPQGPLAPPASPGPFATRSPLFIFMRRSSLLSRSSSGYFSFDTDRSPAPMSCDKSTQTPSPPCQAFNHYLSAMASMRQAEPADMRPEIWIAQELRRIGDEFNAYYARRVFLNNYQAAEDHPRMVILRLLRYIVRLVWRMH

Q: Which IC50 [1] does the source give for `COc1ccc(C(c2c(-c3ccccc3)n(O)c3ccccc23)N2CCN(C)CC2)cc1` (stereo not given) here?
A: 1400 nM

Q: And the IC50 [2]?
A: 800 nM

Q: And the Ki [3]?
A: 400 nM

Q: What about the logP [4] of the same compound?
A: 4

Q: What does the source list for `CC(C)=CCC[C@]1(C)C=Cc2c(O)c3c(c(CC=C(C)C)c2O1)O[C@]12C(=C[C@@H]4C[C@H]1C(C)(C)O[C@@]2(C/C=C(/C)C(=O)O)C4=O)C3=O` [GAMBOGIC ACID]?
A: IC50 [5]: 122 nM; IC5 [6]: 1.21 µM; IC5 [7]: 0.79 µM

Q: With `O=C1NC(=S)N(c2cccc(Br)c2)C(=O)/C1=C/C=C/c1ccccc1` as the compound, how does the IC50 [8] read?
A: 1600 nM

Q: With `CCOc1ccc(N2C(=O)/C(=C/C=C/c3ccccc3)C(=O)NC2=S)cc1` as the compound, how does the IC50 [8] read?
A: 1300 nM

Q: For `CC(=O)N[C@@H](Cc1c[nH]c2ccccc12)C(=O)NCCSSCCN(C)C`, which EC50 [9] is on record?
A: 23 nM

Q: For `CC1=C(C2=C(C)C(=O)c3c(cc(O)c(O)c3Cc3ccccc3)C2=O)C(=O)c2cc(O)c(O)c(Cc3ccccc3)c2C1=O`, which IC50 [5] is on record?
A: 1300 nM

Q: For `CSc1ccc(C(Nc2ccccn2)c2c(C)[nH]c3ccccc23)cc1` (stereo not given), which IC50 [1] is on record?
A: 2500 nM

Q: And the IC50 [2]?
A: 6300 nM

Q: What about the Ki [3] of the same compound?
A: 2900 nM

Q: And the logP [4]?
A: 4
